From PMC8160793, “Potent Antimicrobial and Antibiofilm Activities of Feleucin-K3 Analogs Modified by α-(4-Pentenyl)-Ala against Multidrug-Resistant Bacteria” (Biomolecules, 2021)
In brackets after ≈: the same amount, converted by molar mass. Where two headings read alike, the source gives them in different places. Square brackets hold non-standard residues; d marks the D form. Ends that are not written are not given here. Peptide text beside a SMILES is read from it. ξ: configuration not given here. ξαMeGly(pent-4-enyl) = C=CCCCC(C)(N)C(=O)O

Tests used:
E. coli ATCC 25922 = format: cell-based
Protocol: (§1) The minimum inhibitory concentration (MIC) of the Feleucin-K3 analogs was tested by the broth microdilution method. Sensitive bacteria and drug-resistant bacteria were diluted to 1 × 10^6 CFU/mL, according to the McFarland standards. Bacterial suspension and peptide solutions (8–128 μg/mL) were incubated at 37 °C for 18 h. The minimum concentration without obvious bacterial growth was the MIC of the peptides. The stability of the analogs in a physiological salt environment was also investigated. In brief, salt powder (450-mM NaCl) was dissolved in deionized water, and the following investigational steps were the same as those described before. The above steps were repeated several times, until the same value was obtained three times.

S. aureus ATCC 25923 = format: cell-based, Staphylococcus aureus
Protocol: as §1

P. aeruginosa ATCC 27853 = format: cell-based, Pseudomonas aeruginosa
Protocol: as §1

A. baumannii ATCC 19606 = format: cell-based, Acinetobacter baumannii
Protocol: as §1

MRSA 113 = format: cell-based, Staphylococcus aureus; conditions: 113, 18 h
Protocol: as §1

MRSA 23 = format: cell-based, Staphylococcus aureus; conditions: 23, 18 h
Protocol: as §1

MRSA 48 = format: cell-based, Staphylococcus aureus; conditions: 48, 18 h
Protocol: as §1

MRSA 51 = format: cell-based, Staphylococcus aureus; conditions: 51, 18 h
Protocol: as §1

MRSA 52 = format: cell-based, Staphylococcus aureus; conditions: 52, 18 h
Protocol: as §1

MRSA 54 = format: cell-based, Staphylococcus aureus; conditions: 54, 18 h
Protocol: as §1

MRSA 71 = format: cell-based, Staphylococcus aureus; conditions: 71, 18 h
Protocol: as §1

MRSA 74 = format: cell-based, Staphylococcus aureus; conditions: 74, 18 h
Protocol: as §1

MRSA 75 = format: cell-based, Staphylococcus aureus; conditions: 75, 18 h
Protocol: as §1

MRSA 936 = format: cell-based, Staphylococcus aureus; conditions: 936, 18 h
Protocol: as §1

MRSA ATCC 33591 = format: cell-based, Staphylococcus aureus; conditions: ATCC 33591, 18 h
Protocol: as §1

S. aureus 725 = format: cell-based, Staphylococcus aureus; conditions: 725, 18 h
Protocol: as §1

S. aureus 794 = format: cell-based, Staphylococcus aureus; conditions: 794, 18 h
Protocol: as §1

A. baumannii 51243 = format: cell-based, Acinetobacter baumannii; conditions: 51243, 18 h
Protocol: as §1

A. baumannii 5444 = format: cell-based, Acinetobacter baumannii; conditions: 5444, 18 h
Protocol: as §1

A. baumannii 822144 = format: cell-based, Acinetobacter baumannii; conditions: 822144, 18 h
Protocol: as §1

A. baumannii 8309 = format: cell-based, Acinetobacter baumannii; conditions: 8309, 18 h
Protocol: as §1

A. baumannii 91105 = format: cell-based, Acinetobacter baumannii; conditions: 91105, 18 h
Protocol: as §1

A. baumannii 91152 = format: cell-based, Acinetobacter baumannii; conditions: 91152, 18 h
Protocol: as §1

A. baumannii 91199 = format: cell-based, Acinetobacter baumannii; conditions: 91199, 18 h
Protocol: as §1

A. baumannii 91810 = format: cell-based, Acinetobacter baumannii; conditions: 91810, 18 h
Protocol: as §1

A. baumannii 91869 = format: cell-based, Acinetobacter baumannii; conditions: 91869, 18 h
Protocol: as §1

A. baumannii 91944 = format: cell-based, Acinetobacter baumannii; conditions: 91944, 18 h
Protocol: as §1

A. baumannii 9234 = format: cell-based, Acinetobacter baumannii; conditions: 9234, 18 h
Protocol: as §1

A. baumannii 92359 = format: cell-based, Acinetobacter baumannii; conditions: 92359, 18 h
Protocol: as §1

A. baumannii 9236 = format: cell-based, Acinetobacter baumannii; conditions: 9236, 18 h
Protocol: as §1

A. baumannii 9331 = format: cell-based, Acinetobacter baumannii; conditions: 9331, 18 h
Protocol: as §1

A. baumannii 9336 = format: cell-based, Acinetobacter baumannii; conditions: 9336, 18 h
Protocol: as §1

A. baumannii 97830 = format: cell-based, Acinetobacter baumannii; conditions: 97830, 18 h
Protocol: as §1

A. baumannii 98110 = format: cell-based, Acinetobacter baumannii; conditions: 98110, 18 h
Protocol: as §1

A. baumannii 9828 = format: cell-based, Acinetobacter baumannii; conditions: 9828, 18 h
Protocol: as §1

A. baumannii 9840 = format: cell-based, Acinetobacter baumannii; conditions: 9840, 18 h
Protocol: as §1

A. baumannii 9896 = format: cell-based, Acinetobacter baumannii; conditions: 9896, 18 h
Protocol: as §1

[1] = broth microdilution, 1 × 10^6 CFU/mL, 37 °C, 18 h

Row | MIC, E. coli ATCC 25922 (E. coli ATCC 25922; ATCC 25922, 18 h) [µg/mL] | MIC, S. aureus ATCC 25923 (S. aureus ATCC 25923; ATCC 25923, 18 h) [µg/mL] | MIC, P. aeruginosa ATCC 27853 (P. aeruginosa ATCC 27853; ATCC 27853, 18 h) [µg/mL] | MIC, A. baumannii ATCC 19606 (A. baumannii ATCC 19606; ATCC 19606, 18 h) [µg/mL] | MIC, MRSA 113 (MRSA 113) [µg/mL] | MIC, MRSA 23 (MRSA 23) [µg/mL] | MIC, MRSA 48 (MRSA 48) [µg/mL] | MIC, MRSA 51 (MRSA 51) [µg/mL] | MIC, MRSA 52 (MRSA 52) [µg/mL] | MIC, MRSA 54 (MRSA 54) [µg/mL] | MIC, MRSA 71 (MRSA 71) [µg/mL] | MIC, MRSA 74 (MRSA 74) [µg/mL] | MIC, MRSA 75 (MRSA 75) [µg/mL] | MIC, MRSA 936 (MRSA 936) [µg/mL] | MIC, MRSA ATCC 33591 (MRSA ATCC 33591) [µg/mL] | MIC, S. aureus 725 (S. aureus 725) [µg/mL] | MIC, S. aureus 794 (S. aureus 794) [µg/mL] | MIC, A. baumannii 51243 (A. baumannii 51243) [µg/mL] | MIC, A. baumannii 5444 (A. baumannii 5444) [µg/mL] | MIC, A. baumannii 822144 (A. baumannii 822144) [µg/mL] | Molecule | other results
1 | 16 (≈ 16.1 µM) | 16 (≈ 16.1 µM) | 4 (≈ 4.03 µM) | 64 (≈ 64.4 µM) |  |  |  |  |  |  |  |  |  |  |  |  |  |  |  |  | C=CCCCC(C)(NC(=O)[C@H](CCCCN)NC(=O)[C@@H](N)CC(C)C)C(=O)N[C@@H](CC(C)C)C(=O)N[C@@H](CCCCN)C(=O)N[C@@H](CCCCN)C(=O)N[C@@H](CC(C)C)C(=O)N[C@@H](CC(C)C)C(N)=O (stereo partly drawn) [Feleucin-K64] (H-LK[ξαMeGly(pent-4-enyl)]LKKLL-NH2) | 
2 | >128 | >128 | >128 | >128 |  |  |  |  |  |  |  |  |  |  |  |  |  |  |  |  | C=CCCCC(C)(N)C(=O)N[C@@H](CC(C)C)C(=O)N[C@@H](CCCCN)C(=O)N[C@@H](C)C(=O)N[C@@H](CCCCN)C(=O)N[C@@H](CCCCN)C(=O)N[C@@H](CC(C)C)C(=O)N[C@@H](CC(C)C)C(N)=O (stereo partly drawn) [Feleucin-K66] (H-[ξαMeGly(pent-4-enyl)]LKAKKLL-NH2) | 
3 | 8 (≈ 7.01 µM) | 4 (≈ 3.51 µM) | 8 (≈ 7.01 µM) | 4 (≈ 3.51 µM) | 4 (≈ 3.51 µM) | 4 (≈ 3.51 µM) | 4 (≈ 3.51 µM) | 4 (≈ 3.51 µM) | 4 (≈ 3.51 µM) | 4 (≈ 3.51 µM) | 4 (≈ 3.51 µM) | 4 (≈ 3.51 µM) | 4 (≈ 3.51 µM) | 4 (≈ 3.51 µM) | 4 (≈ 3.51 µM) | 4 (≈ 3.51 µM) | 8 (≈ 7.01 µM) | 4 (≈ 3.51 µM) | 4 (≈ 3.51 µM) | 4 (≈ 3.51 µM) | C=CCCCC(C)(NC(=O)[C@@H](N)Cc1ccccc1)C(=O)N[C@@H](CCCCN)C(=O)N[C@@H](CC(C)C)C(=O)N[C@@H](CC(C)C)C(=O)N[C@@H](CCCCN)C(=O)N[C@@H](CCCCN)C(=O)N[C@@H](CC(C)C)C(=O)N[C@@H](CC(C)C)C(N)=O (stereo partly drawn) [Feleucin-K67] (H-F[ξαMeGly(pent-4-enyl)]KLLKKLL-NH2) | MIC, A. baumannii 8309 (A. baumannii 8309): 4 µg/mL (≈ 3.51 µM); MIC, A. baumannii 91105 (A. baumannii 91105): 4 µg/mL (≈ 3.51 µM); MIC, A. baumannii 91152 (A. baumannii 91152): 4 µg/mL (≈ 3.51 µM); MIC, A. baumannii 91199 (A. baumannii 91199): 4 µg/mL (≈ 3.51 µM); MIC, A. baumannii 91810 (A. baumannii 91810): 4 µg/mL (≈ 3.51 µM); MIC, A. baumannii 91869 (A. baumannii 91869): 4 µg/mL (≈ 3.51 µM); MIC, A. baumannii 91944 (A. baumannii 91944): 4 µg/mL (≈ 3.51 µM); MIC, A. baumannii 9234 (A. baumannii 9234): 4 µg/mL (≈ 3.51 µM); MIC, A. baumannii 92359 (A. baumannii 92359): 4 µg/mL (≈ 3.51 µM); MIC, A. baumannii 9236 (A. baumannii 9236): 4 µg/mL (≈ 3.51 µM); MIC, A. baumannii 9331 (A. baumannii 9331): 8 µg/mL (≈ 7.01 µM); MIC, A. baumannii 9336 (A. baumannii 9336): 4 µg/mL (≈ 3.51 µM); MIC, A. baumannii 97830 (A. baumannii 97830): 4 µg/mL (≈ 3.51 µM); MIC, A. baumannii 98110 (A. baumannii 98110): 4 µg/mL (≈ 3.51 µM); MIC, A. baumannii 9828 (A. baumannii 9828): 4 µg/mL (≈ 3.51 µM); MIC, A. baumannii 9840 (A. baumannii 9840): 4 µg/mL (≈ 3.51 µM); MIC, A. baumannii 9896 (A. baumannii 9896): 4 µg/mL (≈ 3.51 µM)
4 | 8 (≈ 7.01 µM) | 4 (≈ 3.51 µM) | 8 (≈ 7.01 µM) | 4 (≈ 3.51 µM) | 4 (≈ 3.51 µM) | 4 (≈ 3.51 µM) | 4 (≈ 3.51 µM) | 4 (≈ 3.51 µM) | 8 (≈ 7.01 µM) | 4 (≈ 3.51 µM) | 8 (≈ 7.01 µM) | 4 (≈ 3.51 µM) | 4 (≈ 3.51 µM) | 4 (≈ 3.51 µM) | 4 (≈ 3.51 µM) | 4 (≈ 3.51 µM) | 8 (≈ 7.01 µM) | 4 (≈ 3.51 µM) | 4 (≈ 3.51 µM) | 4 (≈ 3.51 µM) | C=CCCCC(C)(NC(=O)[C@H](CC(C)C)NC(=O)[C@H](CCCCN)NC(=O)[C@H](CC(C)C)NC(=O)[C@@H](N)Cc1ccccc1)C(=O)N[C@@H](CCCCN)C(=O)N[C@@H](CCCCN)C(=O)N[C@@H](CC(C)C)C(=O)N[C@@H](CC(C)C)C(N)=O (stereo partly drawn) [Feleucin-K68] (H-FLKL[ξαMeGly(pent-4-enyl)]KKLL-NH2) | MIC, A. baumannii 8309 (A. baumannii 8309): 4 µg/mL (≈ 3.51 µM); MIC, A. baumannii 91105 (A. baumannii 91105): 4 µg/mL (≈ 3.51 µM); MIC, A. baumannii 91152 (A. baumannii 91152): 4 µg/mL (≈ 3.51 µM); MIC, A. baumannii 91199 (A. baumannii 91199): 4 µg/mL (≈ 3.51 µM); MIC, A. baumannii 91810 (A. baumannii 91810): 4 µg/mL (≈ 3.51 µM); MIC, A. baumannii 91869 (A. baumannii 91869): 4 µg/mL (≈ 3.51 µM); MIC, A. baumannii 91944 (A. baumannii 91944): 4 µg/mL (≈ 3.51 µM); MIC, A. baumannii 9234 (A. baumannii 9234): 4 µg/mL (≈ 3.51 µM); MIC, A. baumannii 92359 (A. baumannii 92359): 4 µg/mL (≈ 3.51 µM); MIC, A. baumannii 9236 (A. baumannii 9236): 4 µg/mL (≈ 3.51 µM); MIC, A. baumannii 9331 (A. baumannii 9331): 8 µg/mL (≈ 7.01 µM); MIC, A. baumannii 9336 (A. baumannii 9336): 4 µg/mL (≈ 3.51 µM); MIC, A. baumannii 97830 (A. baumannii 97830): 4 µg/mL (≈ 3.51 µM); MIC, A. baumannii 98110 (A. baumannii 98110): 4 µg/mL (≈ 3.51 µM); MIC, A. baumannii 9828 (A. baumannii 9828): 4 µg/mL (≈ 3.51 µM); MIC, A. baumannii 9840 (A. baumannii 9840): 4 µg/mL (≈ 3.51 µM); MIC, A. baumannii 9896 (A. baumannii 9896): 4 µg/mL (≈ 3.51 µM)
5 |  |  |  |  |  |  |  |  |  |  |  |  |  |  |  |  |  |  |  |  | GIGKFLHSAKKFGKAFVGEIMNS [Magainin 2, reference compound] | MIC, E. coli ATCC 25922 (E. coli ATCC 25922; [1]): 64 µg/mL; MIC, S. aureus ATCC 25923 (S. aureus ATCC 25923; [1]): > 256 µg/mL; MIC, P. aeruginosa ATCC 27853 (P. aeruginosa ATCC 27853; [1]): 256 µg/mL; MIC, A. baumannii ATCC 19606 (A. baumannii ATCC 19606; [1]): 16 µg/mL
6 | >128 | >128 | 64 | >128 |  |  |  |  |  |  |  |  |  |  |  |  |  |  |  |  | LKLLKKLL-NH2 [Feleucin-K63] | 
